Each structure is given as a SMILES string.

The nature of the series: Human HepG2 cell viability assay in 384 well format. It counts as toxicity, cell-based. Also on record: dose 125 nL, time 70.5 hour; cytotoxicity at 70.5 h: concentration not given beside the values. To be noted: HepG2 cells, read-out: Inhibition.
For the compound `Fc1cccc(C2CCCCN2Cc2nc(-c3cnccn3)no2)c1` (stereo not drawn), the cytotoxicity at 70.5 h was -1.63%.

As for `CSCCCN1C[C@H](NC(=O)c2cnn(C)c2)[C@@H](C2CC2)C1`, the cytotoxicity at 70.5 h is -7.31%.

Consider `CCS(=O)(=O)N1CCCC(c2nccn2Cc2ccccn2)C1` (stereo not drawn), for which the cytotoxicity at 70.5 h is -2.1%.

In the case of `CCS(=O)(=O)c1ncc(CN2CCCC2)n1CCc1ccccc1`, the cytotoxicity at 70.5 h was -12.5%.

Regarding `O=C(NCc1ccccc1-n1cccn1)C1CC2(CCNCC2)CN1` (stereo not drawn), the cytotoxicity at 70.5 h was -1.74%.

Take `CC(C)c1noc(C2CCCN2C(=O)CN2CCc3ccccc32)n1` (stereo not drawn): the cytotoxicity at 70.5 h turned out to be 23.7%.

Consider `NC(=O)c1cc2c(nc1CCOCc1ccccc1)CCC2`, for which the cytotoxicity at 70.5 h is -8.58%.

Turning to `CCN1CCN(C(=O)CCC2CCN(C(C)CCC(=O)OC)CC2)CC1` (stereo not drawn), the cytotoxicity at 70.5 h worked out at 8.92%.

With `CSc1ncc(CNCC2(N3CCCCC3)Cc3ccccc3C2)cn1`, the cytotoxicity at 70.5 h was -1.26%.

In the case of `O=C(NCc1cn2c(n1)SCC2)c1cn(CCN2CCCCC2)nn1`, the cytotoxicity at 70.5 h was 17.2%.

As for `CNc1ccnc(N2CCCC(C(=O)c3ccccn3)C2)n1` (stereo not drawn), the cytotoxicity at 70.5 h is 24.1%.

Regarding `Oc1ccc(CCC2CCCCN2Cc2noc(C3CC3)n2)cc1` (stereo not drawn), the cytotoxicity at 70.5 h is 15.5%.

Take `O=c1cc(N2CCNCC2)cnn1Cc1noc(C2CCCC2)n1`: the cytotoxicity at 70.5 h was -23.8%.

On to `COc1cccc(OCCNS(C)(=O)=O)c1`, for which the cytotoxicity at 70.5 h turned out to be 1.43%.

Consider `CCC(=O)N1CCN(c2cc(-n3cnc(C)c3C)nc(C)n2)CC1`, for which the cytotoxicity at 70.5 h was 20.4%.

Consider `CN(Cc1nccn1C)CC1CCOc2ccccc2C1` (stereo not drawn), for which the cytotoxicity at 70.5 h amounted to 22.3%.

In the case of `CC(=O)N1CCN(c2cc(-n3cnc(C)c3C)nc(C)n2)CC1`, the cytotoxicity at 70.5 h was -6.25%.

In the case of `COCc1nc2ncc3c(=O)n(-c4cccc(OC)c4)ccc3n2n1`, the cytotoxicity at 70.5 h was 27.8%.

Take `Cc1ccc(C(=O)Nc2ccc(OC3CCN(C)CC3)cc2)c(C)c1`: the cytotoxicity at 70.5 h is -5.87%.

Turning to `CCC(=O)Nc1cccc(OCC(=O)N(C)Cc2nccn2CC)c1`, the cytotoxicity at 70.5 h was -2.37%.

With `Cc1ccc2nc(N3CCN(CC(=O)NC(C)C)CC3)cc(C)c2c1`, the cytotoxicity at 70.5 h is -1.6%.

For the compound `Cc1ccc(N2CCN(C(=O)COc3ncccn3)CC2)nn1`, the cytotoxicity at 70.5 h is -7.37%.

Consider `CC(C)c1ccc(OCC(=O)N(C)C)cc1`, for which the cytotoxicity at 70.5 h was -9.35%.

`Cc1ccc(C)c(C(=O)Nc2ccc(OC3CCN(C)CC3)cc2)c1`: the cytotoxicity at 70.5 h is -6.52%.

Turning to `O=C(NCCCc1ccc(F)cc1)c1ccc(N2CCOCC2)cc1`, the cytotoxicity at 70.5 h was found to be 2.69%.

As to `CCc1noc(-c2cccc(NC(=O)C(C)(C)C)c2)n1`, the cytotoxicity at 70.5 h is -11.2%.

For `Cc1cc(C(=O)NC(C)c2nnn[nH]2)c2cccc(C)c2n1` (stereo not drawn), the cytotoxicity at 70.5 h was -0.0967%.

In the case of `FC(F)(F)c1nc(NC2CCCCC2)c2ccccc2n1`, the cytotoxicity at 70.5 h was -10.5%.

For the compound `Cc1cc(C)nc(N2C[C@H]3OC(=O)N(CCc4cccc(Cl)c4)[C@H]3C2)n1`, the cytotoxicity at 70.5 h was -0.529%.

With `COCc1nc2ncc3c(=O)n(-c4ccc(OC)cc4)ccc3n2n1`, the cytotoxicity at 70.5 h is -5.86%.

Take `Cc1ccc(N2CC[C@]3(O)CCN(CCN4CCCC4=O)C[C@@H]3C2)nn1`: the cytotoxicity at 70.5 h worked out at 0.21%.

With `C[C@@H]1CN(CC(C)(C)N2CCCCC2)C[C@@]1(O)C1CC1`, the cytotoxicity at 70.5 h was -1.88%.

On to `Cc1ncc(C(=O)NCCOc2ccccc2F)c(C)n1`, for which the cytotoxicity at 70.5 h was 7.2%.

For `COc1ccc(C(C(=O)O)N2CCN(C3CCCCC3)CC2)cc1OC` (stereo not drawn), the cytotoxicity at 70.5 h is 13.6%.

Take `Cc1ccc(CN2CCN(Cc3ccncc3)[C@@H]3CS(=O)(=O)C[C@@H]32)cc1`: the cytotoxicity at 70.5 h is -7.92%.

Regarding `CC(C)[C@H]1CN(CCS(C)(=O)=O)C[C@@H]1NC(=O)c1ccc(=O)[nH]c1`, the cytotoxicity at 70.5 h was -3.99%.

With `N#Cc1ccc(C(=O)N2CCC(c3ncc[nH]3)CC2)cn1`, the cytotoxicity at 70.5 h is -7.49%.

With `CNc1ncc(CN(C)c2nc(C3CCCC3)nc3c2cnn3C)cn1`, the cytotoxicity at 70.5 h stood at 6.56%.

As for `Cn1cccc1C(=O)N1CCC2(CCCN(CC3CC3)C2=O)C1` (stereo not drawn), the cytotoxicity at 70.5 h is -4.86%.

For `COc1nccnc1N1CCN(Cc2ccc3c(c2)OCO3)C(=O)C1`, the cytotoxicity at 70.5 h was 20.7%.

As to `COc1ccc(CC(=O)N2CC[C@H](CO)[C@H](O)C2)c(OC)c1`, the cytotoxicity at 70.5 h was -7.77%.

With `Cc1cc(C(=O)N2CCC(n3cc(CO)nn3)CC2)ccc1F`, the cytotoxicity at 70.5 h was -5.39%.

As to `CN(C)S(=O)(=O)N1CC[C@]2(O)CCN(Cc3cccc(C#N)c3)C[C@@H]2C1`, the cytotoxicity at 70.5 h was 9.63%.

As to `CCn1c(C2CCNCC2)nn(CCCc2ccccc2)c1=O`, the cytotoxicity at 70.5 h is -5.09%.

Take `O=C(CCC(F)(F)F)N1CCCC(c2ncc[nH]2)C1` (stereo not drawn): the cytotoxicity at 70.5 h is 42.3%.

As to `O=C1[C@H]2CC[C@H](CN(Cc3nnc(C4CC4)o3)C2)N1Cc1cscn1`, the cytotoxicity at 70.5 h came out at 18.5%.

In the case of `COCCOC1CCN(C(C(=O)O)c2ccc3c(c2)OCO3)CC1` (stereo not drawn), the cytotoxicity at 70.5 h is -6.06%.

Regarding `CC(C)Oc1ccc2c(NC(=O)CN(C)C)nn(CC(F)(F)F)c2c1`, the cytotoxicity at 70.5 h was -19%.

Regarding `N#CC1CCN(C(=O)CN2CC(c3ccccc3)CC2=O)CC1` (stereo not drawn), the cytotoxicity at 70.5 h is -4.6%.

Turning to `CN(C)C1CCCN(Cc2cccc(Cn3cccn3)c2)CC1` (stereo not drawn), the cytotoxicity at 70.5 h is -1.58%.

As to `CN(C)S(=O)(=O)N1CCCC(CCC(=O)Nc2ccc(Cl)cc2)C1` (stereo not drawn), the cytotoxicity at 70.5 h was 42.2%.

As to `O=C(NCc1ccc2c(c1)CCCO2)c1ccccc1C1CCNC1` (stereo not drawn), the cytotoxicity at 70.5 h was -20.6%.

With `CCc1ccc(CN(C)C(=O)c2cnc3c(c2)nc(N)n3CC)nc1`, the cytotoxicity at 70.5 h is -8.01%.

For the compound `Cc1cccc2cc(CN3CCC(O)(CN4CCCC4)CC3)c(=O)[nH]c12`, the cytotoxicity at 70.5 h was -0.171%.

Turning to `CC(C)=CCN1CCN(Cc2ncc[nH]2)[C@H]2CS(=O)(=O)C[C@H]21`, the cytotoxicity at 70.5 h is -4.55%.

As for `COCc1ncc(CN2CC[C@@](O)(COC)C(C)(C)C2)cn1`, the cytotoxicity at 70.5 h is -18.6%.

As to `CN(Cc1n[nH]c(=O)n1Cc1cccs1)S(C)(=O)=O`, the cytotoxicity at 70.5 h is -0.816%.

With `Cn1cccc1-c1cc(C(=O)NCCCc2csc(N)n2)[nH]n1`, the cytotoxicity at 70.5 h was 18.4%.

For `CN(Cc1ccc2nsnc2c1)C(=O)CCc1cc2n(n1)CCCNC2`, the cytotoxicity at 70.5 h is -8.3%.

With `Cc1cnc(C)c(-c2cc(O)c3c(c2)CN(Cc2nccs2)CCO3)n1`, the cytotoxicity at 70.5 h was -4.63%.

For `CN(C)C(=O)N1CCn2nc(CNC(=O)CCc3ccccn3)cc2C1`, the cytotoxicity at 70.5 h was 13.6%.

For `Cc1ccccc1[C@@H]1CN(Cc2ccc(C(F)(F)F)nc2)C[C@H]1C(=O)O`, the cytotoxicity at 70.5 h was -4.46%.

As to `COc1ncccc1CN1CCc2[nH]cnc2C1CCSC` (stereo not drawn), the cytotoxicity at 70.5 h is 25.1%.

Consider `CSc1ncccc1C(=O)N1CCC2(CC1)OCCCC2O` (stereo not drawn), for which the cytotoxicity at 70.5 h was -3.78%.

In the case of `CNC(=O)c1nc(Cn2ncc3ccccc3c2=O)no1`, the cytotoxicity at 70.5 h was -3.17%.

As for `CCc1cnc(C)nc1NCc1nc(COC)no1`, the cytotoxicity at 70.5 h is -6.43%.

In the case of `Cc1cc(C(=O)N[C@H]2CN(CCC(N)=O)C[C@@H]2C2CC2)sc1C`, the cytotoxicity at 70.5 h was determined as 9.55%.

With `CC(=O)Nc1cccc(-c2ccccc2CCN)c1`, the cytotoxicity at 70.5 h is -1.04%.

For the compound `C/C=C(\C)CN(CCN1CCOCC1)Cc1ccco1`, the cytotoxicity at 70.5 h was -8.08%.

Consider `CCn1nc(C)c(CCNC(=O)c2cccc(-n3cccn3)c2)c1C`, for which the cytotoxicity at 70.5 h was -3.23%.

With `Nc1nc(CN2CCCCC2Cn2cncn2)nc2ccccc12` (stereo not drawn), the cytotoxicity at 70.5 h is 0.228%.

As for `CCc1nc(C2CCCN2Cc2cc(C)nc3ccccc23)no1` (stereo not drawn), the cytotoxicity at 70.5 h came to 2.62%.

Consider `CC(C)c1nc(C2CCCN(C(=O)c3ccc(N(C)C)nn3)C2)no1` (stereo not drawn), for which the cytotoxicity at 70.5 h is -1.24%.

Turning to `COc1ccc(C(=O)N2CCCC2c2noc(C(C)C)n2)nn1` (stereo not drawn), the cytotoxicity at 70.5 h was -4.87%.

With `Cc1nccc(C(=O)N2CCCC2c2noc(C(C)C)n2)n1` (stereo not drawn), the cytotoxicity at 70.5 h stood at 22.8%.

For the compound `CCOc1ccc(C(=O)N2CCCC(n3nc(C)nc3C)C2)cc1` (stereo not drawn), the cytotoxicity at 70.5 h was found to be 1.39%.

As for `Cc1nc(C)n(C2CCCN(C(=O)c3ccc(F)c(F)c3)C2)n1` (stereo not drawn), the cytotoxicity at 70.5 h is -2.21%.

On to `CCc1cnc(CN(C(C)=O)C2CCN(Cc3nccn3C)C2)o1` (stereo not drawn), for which the cytotoxicity at 70.5 h amounted to 1.08%.

`CC(=O)N(Cc1ncc(C(C)C)o1)C1CCN(CCn2cncn2)C1` (stereo not drawn): the cytotoxicity at 70.5 h is -3.83%.

On to `CC(=O)N(Cc1ncc(C(C)C)o1)C1CCN(CC2CCC2)C1` (stereo not drawn), for which the cytotoxicity at 70.5 h was -3.28%.

As to `CCc1nc(C2CCCN2Cc2nnc(C3CCC3)o2)no1` (stereo not drawn), the cytotoxicity at 70.5 h was -2.49%.

As for `CC(C)c1ncc2c(n1)CN(Cc1nnc(Cc3ccccc3)o1)CC2`, the cytotoxicity at 70.5 h is -5.27%.

Turning to `COc1ccc(C(CNC(=O)c2c(C)noc2C)N(C)C)cc1` (stereo not drawn), the cytotoxicity at 70.5 h is 21.1%.

For `CS(=O)(=O)N1CCN(C(=O)CCn2cccn2)CC1`, the cytotoxicity at 70.5 h is -6.72%.

For the compound `O=C(CCn1cccn1)N1CCSCC1`, the cytotoxicity at 70.5 h is -4.39%.

For the compound `Cc1ccc(-c2nc(C(=O)N3CCN(C(=O)N(C)C)CC3)cs2)c(C)c1`, the cytotoxicity at 70.5 h is -9.21%.

As to `O=C(NCCc1ccccn1)Nc1cc(C(F)(F)F)c[nH]c1=O`, the cytotoxicity at 70.5 h was -2.62%.

As for `O=C(NCCOc1ccccc1)Nc1cc(C(F)(F)F)c[nH]c1=O`, the cytotoxicity at 70.5 h was -1.52%.

As for `CC(=O)N1CCN(C(=O)c2csc(-c3ccc(C)cc3C)n2)CC1`, the cytotoxicity at 70.5 h came to 14.1%.

Consider `Cc1nc(-c2ccc(Cl)s2)sc1C(=O)NC(C)(C)C(N)=O`, for which the cytotoxicity at 70.5 h is -4.82%.

As to `CN1CCCN(C(=O)NCc2cc(Br)cs2)CC1`, the cytotoxicity at 70.5 h is -1.99%.

As to `Cc1noc(C)c1C(=O)NCC(c1cccc(F)c1)N(C)C` (stereo not drawn), the cytotoxicity at 70.5 h was -4.95%.

With `Cc1ccc(-c2nc(C(=O)N(C)C3CCN(C)CC3)cs2)c(C)c1`, the cytotoxicity at 70.5 h was -1.64%.

As to `CCOC(=O)c1sc2ccsc2c1CNS(C)(=O)=O`, the cytotoxicity at 70.5 h was -3.52%.

For the compound `CC(C)c1nc(C2CCCN2Cc2nnc(C3CCC3)o2)no1` (stereo not drawn), the cytotoxicity at 70.5 h was found to be 14.8%.

As for `C1CC(c2noc(C3CC3)n2)N(Cc2nnc(C3CC3)o2)C1` (stereo not drawn), the cytotoxicity at 70.5 h is -7.72%.

Take `CCc1nc(CN2CCOC(Cn3cncn3)C2)no1` (stereo not drawn): the cytotoxicity at 70.5 h stood at 16.6%.

Consider `COc1c(CNCCNC(=O)c2cccs2)c(C)nn1C`, for which the cytotoxicity at 70.5 h was -10.5%.

Source of the values: ChEMBL document CHEMBL3507680, “University of Dundee, Gates Library screen for HepG2 cell viability”.
